Measured values as given in ChEMBL document CHEMBL4229455, “Synthesis and anticancer activity of novel bisindolylhydroxymaleimide derivatives with potent GSK-3 kinase inhibition” (Bioorg Med Chem, 2018).
pIC50: −log10 of the molar value.

Experiments:
[1] = system: UACC-257; experiment: Cytotoxicity against human UACC257 cells assessed as cell growth at 10 uM after 48 hrs by SRB assay relative to control; type: functional; conditions: UACC-257, 48 h, read-out: Activity
[2] = system: IGROV-1; experiment: Cytotoxicity against human IGROV1 cells assessed as cell growth at 10 uM after 48 hrs by SRB assay relative to control; type: functional; conditions: IGROV-1, 48 h, read-out: Activity
[3] = system: SNB-19; experiment: Cytotoxicity against human SNB19 cells assessed as cell growth at 10 uM after 48 hrs by SRB assay relative to control; type: functional; conditions: SNB-19, 48 h, read-out: Activity
[4] = biological target: Serine/threonine-protein kinase pim-1 (Homo sapiens, UniProt P11309); experiment: Inhibition of recombinant full length human PIM1 expressed in bacteria using histone H1 as substrate in presence of [gamma-33P]ATP
[5] = system: HCT-15; experiment: Cytotoxicity against human HCT15 cells assessed as cell growth at 10 uM after 48 hrs by SRB assay relative to control; type: functional; conditions: HCT-15, 48 h, read-out: Activity
[6] = system: OVCAR-4; experiment: Cytotoxicity against human OVCAR4 cells assessed as cell growth at 10 uM after 48 hrs by SRB assay relative to control; type: functional; conditions: OVCAR-4, 48 h, read-out: Activity
[7] = biological target: Cyclin-dependent kinase 5/CDK5 activator 1 (Homo sapiens) (UniProt Q00535+Q15078); experiment: Inhibition of recombinant full length human CDK5/p25 expressed in bacteria assessed as residual activity at 10 uM using histone H1 as substrate in presence of [gamma-33P]ATP
[8] = biological target: Glycogen synthase kinase-3 (Sus scrofa) (UniProt B2LUN4+I6LNT8); experiment: Inhibition of domestic porcine brain full length GSK-3alpha/beta assessed as residual activity at 10 uM using GS-1 as substrate in presence of [gamma-33P]ATP; conditions: Sus scrofa domesticus
[9] = system: BT-549; experiment: Cytotoxicity against human BT549 cells assessed as cell growth at 10 uM after 48 hrs by SRB assay relative to control; type: functional; conditions: BT-549, 48 h, read-out: Activity
[10] = system: OVCAR-5; experiment: Cytotoxicity against human OVCAR5 cells assessed as cell growth at 10 uM after 48 hrs by SRB assay relative to control; type: functional; conditions: OVCAR-5, 48 h, read-out: Activity
[11] = system: SK-MEL-5; experiment: Cytotoxicity against human SK-MEL-5 cells assessed as cell growth at 10 uM after 48 hrs by SRB assay relative to control; type: functional; conditions: SK-MEL-5, 48 h, read-out: Activity
[12] = biological target: Dual specificity tyrosine-phosphorylation-regulated kinase 1A (Rattus norvegicus) (UniProt Q63470); experiment: Inhibition of recombinant rat DYRK1A kinase domain expressed in bacteria assessed as residual activity at 10 uM using KKISGRLSPIMTEQ as substrate in presence of [gamma-33P]ATP
[13] = system: NCI-H226; experiment: Cytotoxicity against human NCI-H226 cells assessed as cell growth at 10 uM after 48 hrs by SRB assay relative to control; type: functional; conditions: NCI-H226, 48 h, read-out: Activity
[14] = system: HOP-62; experiment: Cytotoxicity against human HOP62 cells assessed as cell growth at 10 uM after 48 hrs by SRB assay relative to control; type: functional; conditions: HOP-62, 48 h, read-out: Activity
[15] = system: CAKI-1; experiment: Cytotoxicity against human Caki1 cells assessed as cell growth at 10 uM after 48 hrs by SRB assay relative to control; type: functional; conditions: CAKI-1, 48 h, read-out: Activity
[16] = system: HOP-92; experiment: Cytotoxicity against human HOP92 cells assessed as cell growth at 10 uM after 48 hrs by SRB assay relative to control; type: functional; conditions: HOP-92, 48 h, read-out: Activity
[17] = biological target: CDK2/Cyclin A2 (Homo sapiens) (UniProt P24941+P20248); experiment: Inhibition of full length human CDK2/cyclin A assessed as residual activity at 10 uM using histone H1 as substrate in presence of [gamma-33P]ATP; type: protein-complex assay
[18] = system: 786-0; experiment: Cytotoxicity against human 786-O cells assessed as cell growth at 10 uM after 48 hrs by SRB assay relative to control; type: functional; conditions: 786-0, 48 h, read-out: Activity
[19] = system: LOX IMVI; experiment: Cytotoxicity against human LOXIMVI cells assessed as cell growth at 10 uM after 48 hrs by SRB assay relative to control; type: functional; conditions: read-out: Activity
[20] = biological target: T1, Serine/threonine-protein kinase haspin (Homo sapiens, UniProt Q8TF76); experiment: Inhibition of recombinant human haspin kinase domain expressed in bacteria using histone H3 (1 to 21 residues) peptide as substrate in presence of [gamma-33P]ATP
T1 sequence (Q8TF76 whole entry): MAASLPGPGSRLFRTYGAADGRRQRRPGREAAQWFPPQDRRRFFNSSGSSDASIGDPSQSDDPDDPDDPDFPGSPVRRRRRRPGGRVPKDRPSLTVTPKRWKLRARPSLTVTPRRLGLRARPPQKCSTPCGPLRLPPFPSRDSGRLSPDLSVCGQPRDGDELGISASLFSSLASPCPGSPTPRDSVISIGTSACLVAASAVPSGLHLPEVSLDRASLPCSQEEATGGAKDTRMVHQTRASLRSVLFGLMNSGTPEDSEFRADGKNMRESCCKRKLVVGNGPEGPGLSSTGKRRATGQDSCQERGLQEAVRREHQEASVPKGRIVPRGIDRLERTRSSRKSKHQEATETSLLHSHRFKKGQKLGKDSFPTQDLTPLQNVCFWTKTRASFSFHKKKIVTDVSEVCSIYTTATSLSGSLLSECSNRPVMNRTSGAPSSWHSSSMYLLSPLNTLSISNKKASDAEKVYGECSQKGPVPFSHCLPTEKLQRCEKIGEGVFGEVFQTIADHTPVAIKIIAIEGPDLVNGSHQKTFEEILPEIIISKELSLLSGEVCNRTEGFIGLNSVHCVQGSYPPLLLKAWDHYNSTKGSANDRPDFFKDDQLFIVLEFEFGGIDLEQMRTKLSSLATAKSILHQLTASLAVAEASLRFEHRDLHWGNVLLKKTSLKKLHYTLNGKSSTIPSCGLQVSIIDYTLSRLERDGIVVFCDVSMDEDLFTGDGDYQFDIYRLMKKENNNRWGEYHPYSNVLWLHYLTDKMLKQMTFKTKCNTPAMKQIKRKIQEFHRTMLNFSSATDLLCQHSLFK

[21] = system: SF-268; experiment: Cytotoxicity against human SF268 cells assessed as cell growth at 10 uM after 48 hrs by SRB assay relative to control; type: functional; conditions: SF-268, 48 h, read-out: Activity
[22] = system: A549; experiment: Cytotoxicity against human A549 cells assessed as cell growth at 10 uM after 48 hrs by SRB assay relative to control; type: functional; conditions: A549, 48 h, read-out: Activity
[23] = system: SNB-75; experiment: Cytotoxicity against human SNB75 cells assessed as cell growth at 10 uM after 48 hrs by SRB assay relative to control; type: functional; conditions: SNB-75, 48 h, read-out: Activity
[24] = system: KM12; experiment: Cytotoxicity against human KM12 cells assessed as cell growth at 10 uM after 48 hrs by SRB assay relative to control; type: functional; conditions: KM12, 48 h, read-out: Activity

Cyclin-dependent kinase 5/CDK5 activator 1 (Homo sapiens), sequence (Q00535 whole entry): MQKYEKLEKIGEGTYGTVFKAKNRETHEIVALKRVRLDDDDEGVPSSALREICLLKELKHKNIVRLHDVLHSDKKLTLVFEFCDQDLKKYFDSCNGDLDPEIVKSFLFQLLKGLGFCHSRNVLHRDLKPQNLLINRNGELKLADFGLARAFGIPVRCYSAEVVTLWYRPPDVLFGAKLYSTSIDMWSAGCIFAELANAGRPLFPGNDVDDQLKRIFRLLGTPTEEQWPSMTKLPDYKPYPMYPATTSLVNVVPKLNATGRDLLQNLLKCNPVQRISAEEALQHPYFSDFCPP
Cyclin-dependent kinase 5/CDK5 activator 1 (Homo sapiens), sequence (Q15078 99-307 partner limits assumed): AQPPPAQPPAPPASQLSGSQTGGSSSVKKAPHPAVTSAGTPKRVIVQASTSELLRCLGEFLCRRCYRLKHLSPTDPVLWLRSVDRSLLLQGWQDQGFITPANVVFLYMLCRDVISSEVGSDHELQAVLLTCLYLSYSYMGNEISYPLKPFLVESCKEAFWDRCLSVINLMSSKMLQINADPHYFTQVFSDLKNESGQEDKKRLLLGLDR
Serine/threonine-protein kinase pim-1, sequence (P11309 whole entry): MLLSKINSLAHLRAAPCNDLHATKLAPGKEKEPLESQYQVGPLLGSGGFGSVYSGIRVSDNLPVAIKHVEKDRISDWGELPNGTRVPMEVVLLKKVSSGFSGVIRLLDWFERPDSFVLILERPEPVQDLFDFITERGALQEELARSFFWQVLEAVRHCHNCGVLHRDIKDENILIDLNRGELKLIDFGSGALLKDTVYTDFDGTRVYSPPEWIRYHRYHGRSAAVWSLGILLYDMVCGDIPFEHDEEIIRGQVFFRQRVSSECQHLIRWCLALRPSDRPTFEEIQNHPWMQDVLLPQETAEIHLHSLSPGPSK

| Structure (SMILES) | growth at 10 µM [1] [%] | growth at 10 µM [2] [%] | growth at 10 µM [3] [%] | pIC50 [4] | growth at 10 µM [5] [%] | growth at 10 µM [6] [%] | Activity [7] [%] | Activity [8] [%] | growth at 10 µM [9] [%] | growth at 10 µM [10] [%] | growth at 10 µM [11] [%] | Activity [12] [%] | growth at 10 µM [13] [%] | growth at 10 µM [14] [%] | growth at 10 µM [15] [%] | growth at 10 µM [16] [%] | Activity [17] [%] | growth at 10 µM [18] [%] | growth at 10 µM [19] [%] | pIC50 [20] | also measured |
| --- | --- | --- | --- | --- | --- | --- | --- | --- | --- | --- | --- | --- | --- | --- | --- | --- | --- | --- | --- | --- | --- |
| Cn1cc(C2=C(c3cn(C)c4ccccc34)C(=O)N(O)C2=O)c2ccccc21 | 88.3 | 109 | 102 | < 5.00 | 99.9 | 103 | 82 | -13 | 107 | 105 | 92.8 | 81 | 88.7 | 97 | 90.1 | 80.8 | 83 | 103 | 72.8 | < 5.00 | growth at 10 µM [21]: 112%; growth at 10 µM [22]: 87.8%; growth at 10 µM [23]: 90.3%; growth at 10 µM [24]: 104% |
| N#CCCCCCn1cc(C2=C(c3cn(CCCCCC#N)c4ccccc34)C(=O)N(O)C2=O)c2ccccc21 | 56 to 82.1 | 28 to 66.8 | 27 to 79.5 | < 5.00 | 21 to 70.8 | 91.6 | 75 | 5 | 16 to 56 | 95 to 106 | 2 to 39.4 | 38 | 44 to 70 | 45 to 66.5 | 65 to 67 | 25 | 78 | 51 to 78.7 | 19 to 30.5 | < 5.00 | growth at 10 µM [21]: 50 to 80.6%; growth at 10 µM [22]: 51 to 73.6%; growth at 10 µM [23]: 14 to 67.7%; growth at 10 µM [24]: 25 to 65.7% |
| Cn1cc(C2=C(c3cn(CCCCCC(=O)O)c4ccccc34)C(=O)N(O)C2=O)c2ccccc21 | 102 | 103 | 104 | < 5.00 | 96.5 | 94.5 | 34 | 2 | 103 | 96.3 | 97.8 | 22 | 91.3 | 92 | 86.8 | 71.8 | 36 | 96.3 | 80 | < 5.00 | growth at 10 µM [21]: 99.5%; growth at 10 µM [22]: 94.6%; growth at 10 µM [23]: 86.5%; growth at 10 µM [24]: 99.3% |
